Target: T1, Calcitonin gene-related peptide type 1 receptor (Homo sapiens, UniProt O60894+Q16602)
Assay: Displacement of [125I]hCGRP from human cloned CGRP receptor expressed in HEK293 cells
Format: cell-based

T1 sequence (Q16602 whole entry, one chain of several): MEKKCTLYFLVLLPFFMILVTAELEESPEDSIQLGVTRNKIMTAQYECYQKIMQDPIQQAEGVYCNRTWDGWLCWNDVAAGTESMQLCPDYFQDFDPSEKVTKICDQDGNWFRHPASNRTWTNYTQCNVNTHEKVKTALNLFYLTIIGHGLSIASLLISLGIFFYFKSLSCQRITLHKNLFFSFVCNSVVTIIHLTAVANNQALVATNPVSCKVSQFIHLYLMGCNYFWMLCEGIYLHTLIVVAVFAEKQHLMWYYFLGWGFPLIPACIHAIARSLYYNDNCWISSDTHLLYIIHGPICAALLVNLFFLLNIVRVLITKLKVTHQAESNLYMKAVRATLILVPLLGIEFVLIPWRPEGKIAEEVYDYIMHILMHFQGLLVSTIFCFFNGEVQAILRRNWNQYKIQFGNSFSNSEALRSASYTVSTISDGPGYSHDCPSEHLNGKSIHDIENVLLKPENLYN

SMILES | Ki
NCC12CC(=O)Nc3cccc(c31)N(Cc1ccc3cc4c(cc3n1)C[C@]1(C4)C(=O)Nc3ncccc31)C2=O (stereo partly drawn) | 0.13 nM
CN1C(=O)NC(=O)[C@@]12Cc1ccc(NC(=O)CN(Cc3cc(Cl)cc(Cl)c3)C(=O)C(C)(C)C)cc1C2 | 4.4 nM
CN1C(=O)NC(=O)[C@@]12Cc1ccc(NC(=O)CN(Cc3cc(F)cc(F)c3)C(=O)C(C)(C)C)cc1C2 | 0.55 nM
CN1C(=O)NC(=O)[C@@]12Cc1ccc(NC(=O)CN(Cc3cc(F)cc(Cl)c3)C(=O)C(C)(C)C)cc1C2 | 1.2 nM
CN1C(=O)NC(=O)C12Cc1ccc(NC(=O)CN(Cc3ccc(F)cc3)C(=O)C(C)(C)C)cc1C2 (racemic) | 3.7 nM
CN1C(=O)NC(=O)C12Cc1ccc(NC(=O)CN(Cc3cccc(C#N)c3)C(=O)C(C)(C)C)cc1C2 (racemic) | 23 nM
Cc1cccc(CN(CC(=O)Nc2ccc3c(c2)CC2(C3)C(=O)NC(=O)N2C)C(=O)C(C)(C)C)c1 (racemic) | 7.9 nM
CC1(C)CC[C@@H](c2c(F)cccc2F)N(CC(=O)Nc2ccc3c(c2)C[C@]2(C3)C(=O)Nc3ncccc32)C1=O | 0.035 nM
CN1C(=O)NC(=O)C12Cc1ccc(NC(=O)CN(Cc3ccc(C(F)(F)F)cc3)C(=O)C(C)(C)C)cc1C2 (racemic) | 25 nM
COc1cccc(CN(CC(=O)Nc2ccc3c(c2)CC2(C3)C(=O)NC(=O)N2C)C(=O)C(C)(C)C)c1 (racemic) | 45 nM

Continued, values first:

Ki | SMILES
1.8 nM | CN1C(=O)NC(=O)C12Cc1ccc(NC(=O)CN(Cc3cccc(Cl)c3)C(=O)C(C)(C)C)cc1C2 (racemic)
56 nM | C[C@@H](c1ccccc1)N(CC(=O)Nc1ccc2c(c1)C[C@@]1(C2)C(=O)NC(=O)N1C)C(=O)C(C)(C)C
0.83 nM | C[C@H](c1ccccc1)N(CC(=O)Nc1ccc2c(c1)C[C@@]1(C2)C(=O)NC(=O)N1C)C(=O)C(C)(C)C
0.26 nM | C[C@H](c1cc(F)cc(F)c1)N(CC(=O)Nc1ccc2c(c1)C[C@@]1(C2)C(=O)NC(=O)N1C)C(=O)C(C)(C)C
14 nM | CN1C(=O)NC(=O)C12Cc1ccc(NC(=O)CN(Cc3ccccc3F)C(=O)C(C)(C)C)cc1C2 (racemic)
1.6 nM | CN1C(=O)NC(=O)C12Cc1ccc(NC(=O)CN(Cc3cccc(F)c3)C(=O)C(C)(C)C)cc1C2 (racemic)

Target: T1, Calcitonin gene-related peptide type 1 receptor
Assay: Antagonist activity at human cloned CGRP receptor expressed in HEK293 cells assessed as inhibition of CGRP-induced cAMP production
Format: functional, cell-based

IC50 | SMILES
0.62 nM | NCC12CC(=O)Nc3cccc(c31)N(Cc1ccc3cc4c(cc3n1)C[C@]1(C4)C(=O)Nc3ncccc31)C2=O (stereo partly drawn)
0.12 nM | CC1(C)CC[C@@H](c2c(F)cccc2F)N(CC(=O)Nc2ccc3c(c2)C[C@]2(C3)C(=O)Nc3ncccc32)C1=O
